In one experiment the target is HCoV-229E 3CLpro (Human coronavirus 229E, UniProt P0C6X1). Kind of experiment: HCoV-229E 3CLpro inhibition assay (FRET). Type of experiment: biochemical.
Another experiment has as its target SARS-CoV 3CLpro (Severe acute respiratory syndrome coronavirus, UniProt P0C6X7). The experiment in a line: biochemical.
The target in a further experiment is MERS-CoV 3CLpro (Middle East respiratory syndrome-related coronavirus, UniProt K9N7C7). The experiment in a line: biochemical.
The target in a further experiment is SARS-CoV-2 3CLpro (Severe acute respiratory syndrome coronavirus 2, UniProt P0DTD1). Kind of experiment: biochemical.

The values below come from patent US20250059171A1 (Hoffmann-La Roche Inc., priority 2021, published 2025).

MERS-CoV 3CLpro, sequence (K9N7C7 3248-3553): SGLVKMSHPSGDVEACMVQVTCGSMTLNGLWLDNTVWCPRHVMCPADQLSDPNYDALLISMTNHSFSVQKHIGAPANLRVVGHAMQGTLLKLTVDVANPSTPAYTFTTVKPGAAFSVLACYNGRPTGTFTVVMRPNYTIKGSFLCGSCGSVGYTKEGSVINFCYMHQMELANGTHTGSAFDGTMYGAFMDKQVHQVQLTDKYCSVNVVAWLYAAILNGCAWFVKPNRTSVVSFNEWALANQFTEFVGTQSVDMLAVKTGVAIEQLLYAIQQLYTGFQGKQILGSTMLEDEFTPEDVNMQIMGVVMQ
HCoV-229E 3CLpro, sequence (P0C6X1 2966-3267): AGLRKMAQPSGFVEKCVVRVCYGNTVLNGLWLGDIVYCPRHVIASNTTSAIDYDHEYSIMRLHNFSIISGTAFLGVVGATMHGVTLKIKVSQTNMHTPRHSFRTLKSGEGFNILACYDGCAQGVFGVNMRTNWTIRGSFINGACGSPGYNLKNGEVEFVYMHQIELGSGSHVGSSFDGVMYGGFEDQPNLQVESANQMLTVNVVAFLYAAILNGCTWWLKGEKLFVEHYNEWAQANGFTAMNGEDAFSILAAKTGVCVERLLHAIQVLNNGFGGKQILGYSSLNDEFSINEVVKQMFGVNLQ

The IC50 is the concentration that inhibits the measured activity by half. A higher IC50 goes with weaker potency in that assay. Take `CC(C)(C)[C@H](NC(=O)C1CC1(F)F)C(=O)N1C[C@@H]2CCC[C@@H]2[C@H]1C(=O)NN(C[C@@H]1CCNC1=O)C(=O)[C@H](F)Cl` (mixture of isomers) [Example 34, Rac-2,2-difluoro-N-[(1S)-2,2-dimethyl-1-[(3S,3aS,6aR)-3-[[[(2R)-2-chloro-2-fluoro-acetyl]-[[(3S)-2-oxopyrrolidin-3-yl]methyl]amino]carbamoyl]-3,3a,4,5,6,6a-hexahydro-1H-cyclopenta[c]pyrrole-2-carbonyl]propyl]cyclopropanecarboxamide]: the IC50 was found to be 23 nM against HCoV-229E 3CLpro, 12 nM against SARS-CoV 3CLpro, 66 nM against MERS-CoV 3CLpro and 8 nM at SARS-CoV-2 3CLpro.
With `CC(F)C(=O)N[C@H](C(=O)N1C[C@@H]2CCC[C@@H]2[C@H]1C(=O)NN(C[C@@H]1CCNC1=O)C(=O)[C@H](F)Cl)C(C)(C)C` (mixture of isomers) [Example 36, Rac-2-fluoro-N-[(1S)-2,2-dimethyl-1-[(3S,3aS,6aR)-3-[[[(2R)-2-chloro-2-fluoro-acetyl]-[[(3S)-2-oxopyrrolidin-3-yl]methyl]amino]carbamoyl]-3,3a,4,5,6,6a-hexahydro-1H-cyclopenta[c]pyrrole-2-carbonyl]propyl]propanamide], the IC50 turned out to be 34 nM at HCoV-229E 3CLpro, 12 nM against SARS-CoV 3CLpro, 93 nM against MERS-CoV 3CLpro and 7 nM against SARS-CoV-2 3CLpro.
For `CC[C@H](C)[C@H](NC(=O)C1CC1(F)F)C(=O)N1C[C@@H]2CCC[C@@H]2[C@H]1C(=O)NN(C[C@@H]1CCNC1=O)C(=O)[C@H](F)Cl` (mixture of isomers) [Example 41, Rac-2,2-difluoro-N-[(1S,2S)-2-methyl-1-[(3S,3aS,6aR)-3-[[[(2R)-2-chloro-2-fluoro-acetyl]-[[(3S)-2-oxopyrrolidin-3-yl]methyl]amino]carbamoyl]-3,3a,4,5,6,6a-hexahydro-1H-cyclopenta[c]pyrrole-2-carbonyl]butyl]cyclopropanecarboxamide] the same measures were 68 nM, 33 nM, 221 nM and 7 nM.
For `CC[C@H](C)[C@H](NC(=O)C(C)F)C(=O)N1C[C@@H]2CCC[C@@H]2[C@H]1C(=O)NN(C[C@@H]1CCNC1=O)C(=O)[C@H](F)Cl` (mixture of isomers) [Example 43, Rac-2-fluoro-N-[(1S,2S)-2-methyl-1-[(3S,3aS,6aR)-3-[[[(2R)-2-chloro-2-fluoro-acetyl]-[[(3S)-2-oxopyrrolidin-3-yl]methyl]amino]carbamoyl]-3,3a,4,5,6,6a-hexahydro-1H-cyclopenta[c]pyrrole-2-carbonyl]butyl]propanamide] the same measures were 22 nM, 11 nM, 58 nM and 8 nM.
For `CC[C@H](C)[C@H](NC(=O)C1CC1(F)F)C(=O)N1C[C@H]2[C@@H]([C@H]1C(=O)NN(C[C@@H]1CCNC1=O)C(=O)[C@H](F)Cl)C2(C)C` (mixture of isomers) [Example 53, Rac-2,2-difluoro-N-[(1S,2S)-2-methyl-1-[(1R,2S,5S)-6,6-dimethyl-2-[[[(2R)-2-chloro-2-fluoro-acetyl]-[[(3S)-2-oxopyrrolidin-3-yl]methyl]amino]carbamoyl]-3-azabicyclo[3.1.0]hexane-3-carbonyl]butyl]cyclopropanecarboxamide] the same measures were 32 nM, 13 nM, 87 nM and 8 nM.
With `CC[C@H](C)[C@H](NC(=O)C(C)F)C(=O)N1C[C@H]2[C@@H]([C@H]1C(=O)NN(C[C@@H]1CCNC1=O)C(=O)[C@H](F)Cl)C2(C)C` (mixture of isomers) [Example 56, Rac-2-fluoro-N-[(1S,2S)-2-methyl-1-[(1R,2S,5S)-6,6-dimethyl-2-[[[(2R)-2-chloro-2-fluoro-acetyl]-[[(3S)-2-oxopyrrolidin-3-yl]methyl]amino]carbamoyl]-3-azabicyclo[3.1.0]hexane-3-carbonyl]butyl]propanamide], the IC50 at HCoV-229E 3CLpro was 18 nM; on SARS-CoV 3CLpro, 11 nM; at MERS-CoV 3CLpro, 52 nM; against SARS-CoV-2 3CLpro it was 8 nM.
As to `CC[C@H](C)[C@H](NC(=O)C1CC1(F)F)C(=O)N1C[C@H]2[C@@H]([C@H]1C(=O)NN(C[C@@H]1CCNC1=O)C(=O)[C@@H](F)Cl)C2(C)C` (mixture of isomers) [Example 111, Rac-2,2-difluoro-N-[(1S,2S)-2-methyl-1-[(1R,2S,5S)-6,6-dimethyl-2-[[[(2S)-2-chloro-2-fluoro-acetyl]-[[(3S)-2-oxopyrrolidin-3-yl]methyl]amino]carbamoyl]-3-azabicyclo[3.1.0]hexane-3-carbonyl]butyl]cyclopropanecarboxamide], the IC50 against HCoV-229E 3CLpro amounted to 37 nM; at SARS-CoV 3CLpro it was 28 nM; against MERS-CoV 3CLpro, 96 nM; against SARS-CoV-2 3CLpro, 16 nM.
In the same order, the values of `CC[C@@H](C)[C@H](NC(=O)C1CC1(F)F)C(=O)N1C[C@H]2[C@@H]([C@H]1C(=O)NN(C[C@@H]1CCNC1=O)C(=O)[C@H](F)Cl)C2(C)C` (mixture of isomers) [Example 113, Rac-2,2-difluoro-N-[(1S,2R)-2-methyl-1-[(1R,2S,5S)-6,6-dimethyl-2-[[[(2R)-2-chloro-2-fluoro-acetyl]-[[(3S)-2-oxopyrrolidin-3-yl]methyl]amino]carbamoyl]-3-azabicyclo[3.1.0]hexane-3-carbonyl]butyl]cyclopropanecarboxamide] are 23 nM, 15 nM, 79 nM and 10 nM.
In the same order, the values of `CC[C@@H](C)[C@H](NC(=O)C1CC1(F)F)C(=O)N1C[C@H]2[C@@H]([C@H]1C(=O)NN(C[C@@H]1CCNC1=O)C(=O)[C@@H](F)Cl)C2(C)C` (mixture of isomers) [Example 124, Rac-2,2-difluoro-N-[(1S,2R)-2-methyl-1-[(1R,2S,5S)-6,6-dimethyl-2-[[[(2S)-2-chloro-2-fluoro-acetyl]-[[(3S)-2-oxopyrrolidin-3-yl]methyl]amino]carbamoyl]-3-azabicyclo[3.1.0]hexane-3-carbonyl]butyl]cyclopropanecarboxamide] are 41 nM, 45 nM, 115 nM and 26 nM.
In the same order, the values of `CCC(CC)[C@H](NC(=O)C(C)F)C(=O)N1CC(C)(C)C[C@H]1C(=O)NN(C[C@@H]1CCNC1=O)C(=O)[C@H](F)Cl` (mixture of isomers) [Example 137, Rac-2-fluoro-N-[(1S)-2-ethyl-1-[(2S)-4,4-dimethyl-2-[[[(2R)-2-chloro-2-fluoro-acetyl]-[[(3S)-2-oxopyrrolidin-3-yl]methyl]amino]carbamoyl]pyrrolidine-1-carbonyl]butyl]propanamide] are 46 nM, 27 nM, 192 nM and 18 nM.
With `CCC(C)(C)[C@H](NC(=O)C(C)F)C(=O)N1C[C@H]2[C@@H]([C@H]1C(=O)NN(C[C@@H]1CCNC1=O)C(=O)[C@@H](F)Cl)C2(C)C` (mixture of isomers) [Example 146, Rac-2-fluoro-N-[(1S)-2,2-dimethyl-1-[(1R,2S,5S)-6,6-dimethyl-2-[[[(2S)-2-chloro-2-fluoro-acetyl]-[[(3S)-2-oxopyrrolidin-3-yl]methyl]amino]carbamoyl]-3-azabicyclo[3.1.0]hexane-3-carbonyl]butyl]propanamide], the IC50 against HCoV-229E 3CLpro is 69 nM; at SARS-CoV 3CLpro it was 23 nM; against MERS-CoV 3CLpro, 151 nM; against SARS-CoV-2 3CLpro it was 16 nM.
In the same order, the values of `CC(C)(C)[C@H](NC(=O)C(F)(F)F)C(=O)N1C[C@H]2[C@@H]([C@H]1C(=O)NN(C[C@H]1CCCNC1=O)C(=O)[C@H](F)Cl)C2(C)C` (single isomer, unassigned) [Example 163a] are 52 nM, 18 nM, 226 nM and 9 nM.
As for `CC(C)(C)[C@H](NC(=O)C(F)(F)F)C(=O)N1CC2(CC2)C[C@H]1C(=O)NN(C[C@@H]1CCNC1=O)C(=O)[C@H](F)Cl` [Example 6, N-[(1S)-1-[(6S)-6-[[[(2R)-2-chloro-2-fluoro-acetyl]-[[(3S)-2-oxopyrrolidin-3-yl]methyl]amino]carbamoyl]-5-azaspiro[2.4]heptane-5-carbonyl]-2,2-dimethyl-propyl]-2,2,2-trifluoro-acetamide], the IC50 on HCoV-229E 3CLpro was 42 nM; against SARS-CoV 3CLpro it was 14 nM; against MERS-CoV 3CLpro it was 109 nM.
In the same order, the values of `CC[C@H](C)[C@H](NC(=O)C(F)(F)C(F)(F)F)C(=O)N1C[C@@H]2CCC[C@@H]2[C@H]1C(=O)NN(C[C@@H]1CCNC1=O)C(=O)[C@H](F)Cl` [Example 50, N-[(1S,2S)-1-[(3S,3aS,6aR)-3-[[[(2R)-2-chloro-2-fluoro-acetyl]-[[(3S)-2-oxopyrrolidin-3-yl]methyl]amino]carbamoyl]-3,3a,4,5,6,6a-hexahydro-1H-cyclopenta[c]pyrrole-2-carbonyl]-2-methyl-butyl]-2,2,3,3,3-pentafluoro-propanamide] are 17 nM, 8 nM and 42 nM.
In the same order, the values of `CCC(CC)[C@H](NC(=O)C(F)(F)F)C(=O)N1C[C@H]2[C@@H]([C@H]1C(=O)NN(C[C@@H]1CCNC1=O)C(=O)[C@H](F)Cl)C2(C)C` [Example 84, N-[(1S)-1-[(1R,2S,5S)-2-[[[(2R)-2-chloro-2-fluoro-acetyl]-[[(3S)-2-oxopyrrolidin-3-yl]methyl]amino]carbamoyl]-6,6-dimethyl-3-azabicyclo[3.1.0]hexane-3-carbonyl]-2-ethyl-butyl]-2,2,2-trifluoro-acetamide] are 30 nM, 14 nM and 87 nM.
